We go through 1 compound from patent publication US11000033B2, “Ketone or oxime compound, and herbicide” (NISSAN CHEMICAL CORPORATION, priority 2014, dated 2021).

What all share (type): in vivo
In data set [1] the test system is Echinochloa oryzacola Vasing. In words: Test Example 1: herbicidal activity, application before weed generation in submerged conditions (symbol A). The note with it: application herbicide amount 320 g/ha. The text has this: (§1) Herbicidal Activity Test by Application Before Weed Generation in Submerged Conditions
(§2) After alluvial soil was placed into 1/10000 are of Wagner pot, water was poured and mixed to form a submerged condition having a water depth of 4 cm. Seeds of Echinochloa oryzacola Vasing., Scirpus juncoides, and Monochoria vaginalis were sowed in a mixed manner in the above pot and thereafter 2.5 leaf stage rice plant seedlings were transplanted thereto. On the day of sowing seeds, the emulsion agent of the compound of the present invention prepared in accordance with Formulation Example 2 was diluted with water so as to be a predetermined herbicide amount and the diluted emulsion agent was applied to the surface of the water. The pot was placed in a greenhouse of 25° C. to 30° C. to grow plant. 3 weeks later from the herbicide application, the effect to each plant was investigated in accordance with the following criteria.
(§3) 5 Herbicidal ratio of 90% or more (almost completely withered)
(§4) 4 Herbicidal ratio of 70% or higher and lower than 90%
(§5) 3 Herbicidal ratio of 40% or higher and lower than 70%
(§6) 2 Herbicidal ratio of 20% or higher and lower than 40%
(§7) 1 Herbicidal ratio of 5% or higher and lower than 20%
(§8) 0 Herbicidal ratio of 5% or lower (almost no effect)

For data set [2], the system named is Scirpus juncoides. Briefly: Test Example 1: herbicidal activity, application before weed generation in submerged conditions (symbol B). The note with it: application herbicide amount 320 g/ha.
Text: as §1, §2, §3, §4, §5, §6, §7, §8

Data set [3] relates to transplanted rice plant. In words: Test Example 1: effect on crop, application before weed generation in submerged conditions (symbol a). The note with it: application herbicide amount 320 g/ha. The method, then:
as §1
After alluvial soil was placed into 1/10000 are of Wagner pot, water was poured and mixed to form a submerged condition having a water depth of 4 cm. Seeds of Echinochloa oryzacola Vasing., Scirpus juncoides, and Monochoria vaginalis were sowed in a mixed manner in the above pot and thereafter 2.5 leaf stage rice plant seedlings were transplanted thereto. […] The pot was placed in a greenhouse of 25° C. to 30° C. to grow plant. 3 weeks later from the herbicide application, the effect to each plant was investigated in accordance with the following criteria.
as §3, §4, §5, §6, §7, §8

For data set [4], the system named is Echinochloa oryzacola Vasing. Briefly: Test Example 2: herbicidal activity, application during weed generation in submerged conditions (symbol A). The note with it: Table 23; application herbicide amount 320 g/ha; grade 0-5 by criteria of Test Example 1. The method, then: (§9) Herbicidal Activity Test by Application During Weed Generation in Submerged Conditions
as §2, with “the pot was placed in the greenhouse of 25° C. to 30° C. to grow the plants. When Echinochloa oryzacola Vasing., Scirpus juncoides, and Monochoria vaginalis were grown to one” for “thereafter 2.5”, “to two leaf stage,” for “rice plant seedlings were transplanted thereto. On the day of sowing seeds,”, “water.” for “water. The pot was placed in a greenhouse of 25° C. to 30° C. to grow plant.”, “criteria of Test Example 1.” for “following criteria.”

In data set [5] the test system is Scirpus juncoides. Briefly: Test Example 2: herbicidal activity, application during weed generation in submerged conditions (symbol B). As to conditions: Table 23; application herbicide amount 320 g/ha; grade 0-5 by criteria of Test Example 1. On the procedure: as §9
as §2, with “the pot was placed in the greenhouse of 25° C. to 30° C. to grow the plants. When Echinochloa oryzacola Vasing., Scirpus juncoides, and Monochoria vaginalis were grown to one” for “thereafter 2.5”, “to two leaf stage,” for “rice plant seedlings were transplanted thereto. On the day of sowing seeds,”, “water.” for “water. The pot was placed in a greenhouse of 25° C. to 30° C. to grow plant.”, “criteria of Test Example 1.” for “following criteria.”

Data set [6] relates to Monochoria vaginalis. In words: Test Example 2: herbicidal activity, application during weed generation in submerged conditions (symbol C). The note with it: Table 23; application herbicide amount 320 g/ha; grade 0-5 by criteria of Test Example 1. On the procedure: as §9
as §2, with “the pot was placed in the greenhouse of 25° C. to 30° C. to grow the plants. When Echinochloa oryzacola Vasing., Scirpus juncoides, and Monochoria vaginalis were grown to one” for “thereafter 2.5”, “to two leaf stage,” for “rice plant seedlings were transplanted thereto. On the day of sowing seeds,”, “water.” for “water. The pot was placed in a greenhouse of 25° C. to 30° C. to grow plant.”, “criteria of Test Example 1.” for “following criteria.”

Data set [7] has as its system Echinochloa crus-galli var. crus-galli. In words: Test Example 3: herbicidal effect by foliage application, Wagner pot (symbol H). The note with it: application herbicide amount 320 g/ha. The method, then:
(§10) Herbicidal Effect Test by Foliage Application
(§11) After alluvial soil was placed into 1/10000 are of Wagner pot, water was poured and mixed to form a submerged condition having a water depth of 0.1 cm to 0.5 cm. Seeds of Echinochloa crus-galli var. crus-galli, Leptochloa chinensis, Cyperus difformis, and rice were sowed and the pot was placed in the greenhouse of 25° C. to 30° C. to grow the plants. After the plants were grown for 14 days, the emulsion agent of the compound of the present invention prepared in accordance with Formulation Example 2 was diluted with water so as to be a predetermined herbicide amount and the diluted emulsion agent was uniformly applied to a foliage part with a small-size spray. 3 weeks later from the herbicide application, the effect to each plant was investigated in accordance with the criteria of Test Example 1.

Data set [8] concerns Leptochloa chinensis. Briefly: Test Example 3: herbicidal effect by foliage application, Wagner pot (symbol D). The note with it: application herbicide amount 320 g/ha. On the procedure:
as §10, §11

Data set [9] has as its system Cyperus difformis. In words: Test Example 3: herbicidal effect by foliage application, Wagner pot (symbol E). The note with it: application herbicide amount 320 g/ha. On the procedure:
as §10, §11

The subject of data set [10] is directly sowed rice plant. In words: Test Example 3: effect on crop by foliage application, Wagner pot (symbol b). The note with it: application herbicide amount 320 g/ha. The method, then:
as §10
After alluvial soil was placed into 1/10000 are of Wagner pot, water was poured and mixed to form a submerged condition having a water depth of 0.1 cm to 0.5 cm. Seeds of Echinochloa crus-galli var. crus-galli, Leptochloa chinensis, Cyperus difformis, and rice were sowed and the pot was placed in the greenhouse of 25° C. to 30° C. to grow the plants.

Take `CON=C(C)CC1CC(O)=C(c2c(C)cc(SC)cc2C)C1=O` (stereo not shown) [6-024]: the “Herbicidal effect grade, A: Echinochloa oryzacola Vasing.” value in data set [1] is 3 (Herbicidal ratio of 40% or higher and lower than 70%); in data set [4], 1 (Herbicidal ratio of 5% or higher and lower than 20%). In addition, the “Herbicidal effect grade, B: Scirpus juncoides” value in data set [2] is 2 (Herbicidal ratio of 20% or higher and lower than 40%); in data set [5], 0 (Herbicidal ratio of 5% or lower (almost no effect)). In data set [3], the “Effect grade on crop, a: transplanted rice plant” value was 3 (Herbicidal ratio of 40% or higher and lower than 70%). For the same compound, the “Herbicidal effect grade, C: Monochoria vaginalis” value in data set [6] is on record as 0 (Herbicidal ratio of 5% or lower (almost no effect)). Besides, the “herbicidal effect on H (Echinochloa crus-galli var. crus-galli), grade 0-5” value in [7] was 3 (Herbicidal ratio of 40% or higher and lower than 70%). Further, the “herbicidal effect on D (Leptochloa chinensis), grade 0-5” value in [8] was 2 (Herbicidal ratio of 20% or higher and lower than 40%). In data set [9], the “herbicidal effect on E, grade 0-5” value is 3 (Herbicidal ratio of 40% or higher and lower than 70%). Besides, in data set [10], the “effect on crop b (directly sowed rice plant), grade 0-5” value is 3 (Herbicidal ratio of 40% or higher and lower than 70%).
